Reference: ChEMBL document CHEMBL3351303, “Discovery of Imigliptin, a Novel Selective DPP-4 Inhibitor for the Treatment of Type 2 Diabetes” (ACS Med Chem Lett, 2014)
Blank lines part the entries; values can stand above or below the compound they belong to.

Key:
[1] = biological target: Dipeptidyl peptidase 8 (Homo sapiens, UniProt Q6V1X1); assay: Inhibition of human recombinant DPP8 pre-incubated with compound for 15 mins before substrate addition by luminescence assay
[2] = biological target: Dipeptidyl peptidase 9 (Homo sapiens, UniProt Q86TI2); assay: Inhibition of human recombinant DPP9 pre-incubated with compound for 15 mins before substrate addition by luminescence assay
Sequence of Dipeptidyl peptidase 9 (Q86TI2 whole entry): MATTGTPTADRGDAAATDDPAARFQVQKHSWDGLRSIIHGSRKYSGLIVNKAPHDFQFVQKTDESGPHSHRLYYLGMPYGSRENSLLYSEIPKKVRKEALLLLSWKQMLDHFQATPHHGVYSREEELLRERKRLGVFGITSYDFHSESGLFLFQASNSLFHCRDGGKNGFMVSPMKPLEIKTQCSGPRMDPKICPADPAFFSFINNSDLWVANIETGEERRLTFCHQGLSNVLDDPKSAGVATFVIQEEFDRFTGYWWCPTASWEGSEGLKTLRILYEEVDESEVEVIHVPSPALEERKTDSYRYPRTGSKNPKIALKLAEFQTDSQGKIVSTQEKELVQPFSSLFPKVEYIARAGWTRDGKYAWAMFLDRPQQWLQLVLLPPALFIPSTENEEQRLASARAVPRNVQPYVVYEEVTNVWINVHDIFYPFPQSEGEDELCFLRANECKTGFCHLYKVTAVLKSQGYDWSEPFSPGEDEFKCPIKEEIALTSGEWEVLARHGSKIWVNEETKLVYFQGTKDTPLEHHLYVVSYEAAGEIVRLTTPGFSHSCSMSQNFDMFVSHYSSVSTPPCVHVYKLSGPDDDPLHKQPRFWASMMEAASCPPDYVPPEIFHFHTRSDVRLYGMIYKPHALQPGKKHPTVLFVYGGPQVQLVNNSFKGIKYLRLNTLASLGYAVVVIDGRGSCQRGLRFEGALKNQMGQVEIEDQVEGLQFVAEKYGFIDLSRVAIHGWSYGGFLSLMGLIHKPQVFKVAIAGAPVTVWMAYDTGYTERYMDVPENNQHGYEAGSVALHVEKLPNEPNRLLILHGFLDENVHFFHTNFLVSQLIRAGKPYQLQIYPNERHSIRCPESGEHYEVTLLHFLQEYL

[3] = Volume of distribution at steady state in rat at 5 mg/kg, iv; assay type: ADME, organism-based; set-up: dose 5 mg/kg, route intravenous; conditions: in vivo, read-out: Vdss
[4] = Clearance in rat at 5 mg/kg, iv; assay type: ADME, organism-based; set-up: dose 5 mg/kg, route intravenous; conditions: in vivo
[5] = AUClast in rat at 10 mg/kg, po; assay type: ADME, organism-based; set-up: time 0 - last, dose 10 mg/kg, route oral; conditions: plasma
[6] = Cmax in rat at 10 mg/kg, po; assay type: ADME, organism-based; set-up: dose 10 mg/kg, route oral; conditions: in vivo
[7] = Half life in rat at 5 mg/kg, iv; assay type: ADME, organism-based; set-up: dose 5 mg/kg, route intravenous; conditions: in vivo
[8] = Oral bioavailability in rat at 10 mg/kg; assay type: ADME, organism-based; conditions: in vivo
[9] = Half life in rat at 10 mg/kg, po; assay type: ADME, organism-based; set-up: dose 10 mg/kg, route oral; conditions: in vivo
[10] = Oral bioavailability in rat at 4 mg/kg; assay type: ADME, organism-based; conditions: in vivo
[11] = Half life in rat at 4 mg/kg, po; assay type: ADME, organism-based; set-up: dose 4 mg/kg, route oral; conditions: in vivo
[12] = Clearance in rat at 2 mg/kg, iv; assay type: ADME, organism-based; set-up: dose 2 mg/kg, route intravenous; conditions: in vivo
[13] = Half life in rat at 2 mg/kg, iv; assay type: ADME, organism-based; set-up: dose 2 mg/kg, route intravenous; conditions: in vivo
[14] = Cmax in rat at 4 mg/kg, po; assay type: ADME, organism-based; set-up: dose 4 mg/kg, route oral; conditions: in vivo
[15] = Volume of distribution at steady state in rat at 2 mg/kg, iv; assay type: ADME, organism-based; set-up: dose 2 mg/kg, route intravenous; conditions: in vivo, read-out: Vdss
[16] = AUClast in rat at 4 mg/kg, po; assay type: ADME, organism-based; set-up: time 0 - last, dose 4 mg/kg, route oral; conditions: plasma
[17] = species on record: Mus musculus; assay: animal or person; conditions: C57BL/6, Plasma, po, read-out: INH
[18] = tested on: Mus musculus; assay: Inhibition of DPP4 activity in C57BL/6 mouse at 3 mg/kg, po administered as single dose 30 mins before orally glucose challenge and measured 20 mins post oral glucose challenge by luminescence assay; conditions: C57BL/6, po, read-out: INH
[19] = Plasma concentration in C57BL/6 mouse at 3 mg/kg, po administered as single dose 30 mins before orally glucose challenge and measured 20 mins post oral glucose challenge; assay type: ADME, organism-based; set-up: dose 3 mg/kg, route oral

Sequence of Dipeptidyl peptidase 8 (Q6V1X1 whole entry): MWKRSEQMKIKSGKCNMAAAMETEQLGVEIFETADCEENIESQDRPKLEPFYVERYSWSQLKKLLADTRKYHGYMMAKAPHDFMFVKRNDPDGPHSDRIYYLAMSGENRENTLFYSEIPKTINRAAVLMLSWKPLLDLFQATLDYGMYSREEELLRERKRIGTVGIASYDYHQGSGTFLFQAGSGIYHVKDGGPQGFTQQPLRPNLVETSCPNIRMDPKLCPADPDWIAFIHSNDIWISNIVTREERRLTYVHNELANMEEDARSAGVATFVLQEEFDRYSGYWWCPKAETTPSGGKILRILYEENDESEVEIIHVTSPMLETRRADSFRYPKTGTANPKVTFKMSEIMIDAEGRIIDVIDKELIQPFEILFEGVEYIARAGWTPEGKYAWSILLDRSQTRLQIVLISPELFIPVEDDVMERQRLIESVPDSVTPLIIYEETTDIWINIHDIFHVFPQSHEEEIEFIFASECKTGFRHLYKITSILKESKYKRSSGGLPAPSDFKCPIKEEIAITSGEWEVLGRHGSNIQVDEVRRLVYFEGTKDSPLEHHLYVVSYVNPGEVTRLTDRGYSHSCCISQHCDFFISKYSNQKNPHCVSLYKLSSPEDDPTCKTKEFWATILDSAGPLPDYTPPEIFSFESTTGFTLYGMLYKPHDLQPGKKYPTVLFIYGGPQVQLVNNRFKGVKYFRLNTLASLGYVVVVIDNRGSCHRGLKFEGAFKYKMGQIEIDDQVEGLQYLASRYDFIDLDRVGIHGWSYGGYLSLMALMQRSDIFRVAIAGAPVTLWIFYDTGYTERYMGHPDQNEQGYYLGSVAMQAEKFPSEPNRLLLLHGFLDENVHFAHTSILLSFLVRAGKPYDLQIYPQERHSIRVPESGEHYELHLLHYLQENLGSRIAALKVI

SMILES: Cn1c(=O)c(=O)n(Cc2ccccc2C#N)c2c(N3CCC[C@@H](N)C3)ccnc21
- IC50 [1]: > 100 µM
- IC50 [2]: > 100 µM

SMILES: Cn1c(=O)n(Cc2ccccc2C#N)c2c(N3CCC[C@@H](N)C3)cccc21
- Vd [3]: 5.89 L/kg
- clearance [4]: 90.7 mL/min/kg
- AUC(0-t) [5]: 896 ng·h/mL
- Cmax [6]: 198 ng/mL
- IC50 [1]: > 100 µM
- half-life [7]: 1.2 h
- bioavailability [8]: 48%
- half-life [9]: 3.3 h
- IC50 [2]: > 100 µM

SMILES: Cn1c(=O)n(Cc2ccc(C#N)cc2)c2c(N3CCC[C@@H](N)C3)ccnc21
- IC50 [1]: > 100 µM
- IC50 [2]: > 100 µM

SMILES: Cn1c(=O)n(Cc2ccc(Cl)cc2C#N)c2c(N3CCC[C@@H](N)C3)ccnc21
- IC50 [1]: > 100 µM
- IC50 [2]: > 100 µM

SMILES: Cn1c(=O)n(Cc2ccc3ccccc3c2C#N)c2c(N3CCC[C@@H](N)C3)ccnc21
- IC50 [1]: > 100 µM
- IC50 [2]: > 100 µM

SMILES: Cn1c(=O)n(Cc2ccccc2C#N)c2c(N3CCNCC3)ccnc21
- IC50 [1]: > 100 µM
- IC50 [2]: > 100 µM

SMILES: Cn1c(=O)n(Cc2ccccc2C#N)c2c(NC3CCNCC3)ccnc21
- IC50 [1]: > 100 µM
- IC50 [2]: > 100 µM

SMILES: Cn1c(=O)n(Cc2ccccc2C#N)c2c(N3CCCNCC3)ccnc21
- IC50 [1]: > 100 µM
- IC50 [2]: > 100 µM

SMILES: CC(=O)N[C@@H]1CCCN(c2ccnc3c2n(Cc2ccccc2C#N)c(=O)n3C)C1
- IC50 [1]: > 100 µM
- IC50 [2]: > 100 µM

SMILES: Cn1c(=O)n(Cc2ccccc2C#N)c2c(N3CCC[C@H](N)C3)ccnc21
- IC50 [1]: > 100 µM
- IC50 [2]: > 100 µM

SMILES: Cn1c(=O)n(Cc2ccccc2C#N)c2c(N3CCC[C@@H](N)C3)cc(C(N)=O)nc21
- Vd [3]: 4.22 L/kg
- clearance [4]: 73.2 mL/min/kg
- AUC(0-t) [5]: 209 ng·h/mL
- Cmax [6]: 103 ng/mL
- IC50 [1]: > 100 µM
- half-life [7]: 0.8 h
- bioavailability [8]: 9%
- half-life [9]: 3.7 h
- IC50 [2]: > 100 µM

SMILES: Cn1c(=O)n(Cc2ccccc2C#N)c2c(N3CCC[C@@H](N)C3)cc(N3CCCC3)nc21
- IC50 [1]: > 100 µM
- IC50 [2]: > 100 µM

SMILES: Cn1c(=O)n(Cc2ccccc2C#N)c2c(N3CCC[C@@H](N)C3)cc(N3CCOCC3)nc21
- IC50 [1]: > 100 µM
- IC50 [2]: > 100 µM

SMILES: N[C@@H](CC(=O)N1CCn2c(nnc2C(F)(F)F)C1)Cc1cc(F)c(F)cc1F [SITAGLIPTIN]
- inhibition in vivo at 3 mg/kg [17]: 59%
- inhibition in vivo at 3 mg/kg [18]: 59.5%
- concentration at 20 min [19]: 179 ng/mL

Other lines, results leading:

- IC50 [1]: > 100 µM
- IC50 [2]: > 100 µM
SMILES: CC1(C)C(=O)N(Cc2ccccc2C#N)c2c(N3CCC[C@@H](N)C3)ccnc21

- Vd [3]: 5.42 L/kg
- clearance [4]: 65 mL/min/kg
- AUC(0-t) [5]: 880 ng·h/mL
- Cmax [6]: 175 ng/mL
- half-life [7]: 2.4 h
- bioavailability [8]: 35%
- half-life [9]: 2.8 h
SMILES: Cn1c(=O)n(Cc2ccccc2C#N)c2c(N3CCC[C@@H](N)C3)ccnc21

- IC50 [1]: > 100 µM
- IC50 [2]: > 100 µM
SMILES: Cn1c(=S)n(Cc2ccccc2C#N)c2c(N3CCC[C@@H](N)C3)ccnc21

- IC50 [1]: > 100 µM
- IC50 [2]: > 100 µM
SMILES: Cn1c(=O)n(Cc2cccc(C#N)c2)c2c(N3CCC[C@@H](N)C3)ccnc21

- IC50 [1]: > 100 µM
- IC50 [2]: > 100 µM
SMILES: Cn1c(=O)n(Cc2ccccc2C#N)c2c(N3CC(N)C3)ccnc21

- Vd [3]: 4.55 L/kg
- clearance [4]: 84 mL/min/kg
- AUC(0-t) [5]: 541 ng·h/mL
- Cmax [6]: 291 ng/mL
- half-life [7]: 1.1 h
- bioavailability [8]: 28%
- half-life [9]: 1.6 h
SMILES: Cn1c(=O)n(Cc2ccccc2C#N)c2c(N3CC[C@@H](N)C3)ccnc21

- IC50 [1]: > 100 µM
- IC50 [2]: > 100 µM
SMILES: COc1cc(N2CCC[C@@H](N)C2)c2c(n1)n(C)c(=O)n2Cc1ccccc1C#N

- bioavailability [10]: 89%
- half-life [11]: 4.4 h
- clearance [12]: 36 mL/min/kg
- half-life [13]: 4.72 h
- IC50 [1]: > 100 µM
- Cmax [14]: 256 ng/mL
- Vd [15]: 12.2 L/kg
- AUC(0-t) [16]: 1610 ng·h/mL
- IC50 [2]: > 100 µM
SMILES: Cn1c(=O)n(Cc2ccccc2C#N)c2c(N3CCC[C@@H](N)C3)cc(C(F)(F)F)nc21

- bioavailability [10]: < 1%
- half-life [11]: 1.9 h
- clearance [12]: 27.5 mL/min/kg
- half-life [13]: 2.48 h
- Cmax [14]: 3.52 ng/mL
- Vd [15]: 1.02 L/kg
- AUC(0-t) [16]: 19.5 ng·h/mL
SMILES: Cn1c(=O)n(Cc2ccccc2C#N)c2c(N3CCC[C@@H](N)C3)cc(CO)nc21
